Test results reported in ChEMBL document CHEMBL1268991, “New stilbenoid with inhibitory activity on viral neuraminidases from Erythrina addisoniae” (Bioorg Med Chem Lett, 2010).

What was measured:
Neuraminidase [1] = target: T1, Neuraminidase (Influenza A virus, UniProt B4URF0); assay: Inhibition of influenza A virus H1N1 Neuraminidase using 4-methylumbelliferyl-alpha-D-N-acetylneuraminic acid sodium salt hydrate substrate
Neuraminidase [2] = target: T1, Neuraminidase; assay: Inhibition of influenza A virus H9N2 Neuraminidase using 4-methylumbelliferyl-alpha-D-N-acetylneuraminic acid sodium salt hydrate substrate
Neuraminidase [3] = target: T1, Neuraminidase; assay: Non-competitive inhibition of influenza A virus H1N1 Neuraminidase using 4-methylumbelliferyl-alpha-D-N-acetylneuraminic acid sodium salt hydrate substrate by Lineweaver burk plot

SMILES | IC50 (Neuraminidase [1]) | IC50 (Neuraminidase [2]) | Ki (Neuraminidase [3])
CC(C)=CCc1cc(/C=C/C(=O)c2ccc(O)cc2O)cc(O)c1O [5'-PRENYLBUTEIN] | 64.4 µM | 60.1 µM | 66.7 µM
CC(C)=CCc1cc(/C=C/C(=O)c2ccc(O)cc2O)cc(CC=C(C)C)c1O [ABYSSINONE VI] | 67.4 µM | 62.6 µM | 70 µM
CC(C)=CCc1cc(-c2coc3cc(O)cc(O)c3c2=O)ccc1O [CORYLIN] | > 148 µM | > 148 µM | 
C=C(C)C(O)CC1=c2occ(-c3ccc(O)cc3)c(=O)c2=C(O)C2C=CC(C)(C)OC12 (configuration not stated) [ERYSENEGALENSEIN] | > 118 µM | > 118 µM | 
CC1(C)C=Cc2c(c(CO)c3occ(-c4ccc(O)cc4)c(=O)c3c2O)O1 [ERYTHRADDISON A] | > 136 µM | > 136 µM | 
COc1ccc(/C(C=O)=C\c2ccc(O)cc2OC)c(O)c1 [ERYTHRADDISON B] | 29.3 µM | 23.9 µM | 32.7 µM
CC1(C)C=Cc2cc(-c3coc4cc(O)ccc4c3=O)ccc2O1 [ISOWIGHTEONE] | > 156 µM | > 156 µM | 
CC(C)=CCc1cc(/C=C/C(=O)c2ccc(O)cc2O)ccc1O [LICOAGROCHALCONE A] | 66.3 µM | 61.7 µM | 68.9 µM
CC(C)=CCc1c(O)cc2occ(-c3ccc(O)cc3)c(=O)c2c1O [WIGHTEONE] | > 148 µM | > 148 µM | 
